Here are results for two compounds from patent US9062275B2, “Compositions rich in omega-3 fatty acids with a low content in phytanic acid” (NATAC PHARMA, S.L., priority 2009, dated 2015).

The structures appear in SMILES notation.

The subject of one data set is retinas from rats. Put plainly: MNU-induced retinal apoptosis in vivo. The protocol:
The same materials and immunohystochemical and quantification methods as in Experiment A were used. Instead of using Paraquat for inducing apoptosis, N-Nitroso-N-methylurea (MNU) (Sigma-Alldrich) was used. Instead of analysing cultures in vitro, as in Experiment A, retins from sacrificed Wistar albino rats were analysed. For that purpose, 8 rats S-D with 42 days of age were selected and fed for 4 weeks with a standard basal diet. Each animal was fed in a different way: one rat was on a standard on control diet, while for the other 7 rats this diet was modified with DHA at 15%, having different concentrations of PhA as in Experiment A: 0/4/20/100/500/2500/12500 μgPhA/g of oil. After these 4 weeks, they were injected a single intraperitoneal injection of MNU (75 mg/kg body weight). All rats were on the same diet for 6 days, being sacrificed at the 7th day, after having fast for 24 hours, when the extraction of retinas was carried out, following the fixation and immunohystochemical processes as in Experiment A. For the cytochemical studies, 10 fields/samples were randomly quantified, where results represent the 10 eye/sample mean.

Data set [1] deals with leukotrienes, prostaglandin E2, prostaglandin F2. To be noted: cited from earlier work.
In a further data set the test system is photoreceptors. Put plainly: Paraquat-induced photoreceptor apoptosis in vitro. It counts as cell-based, Wistar albino rats. As to the method:
Tyramide signal amplification (TSA)-FISH PerkinElmer, Boston, Mass., USA.); secondary antibodies, monoclonal antibodies to-Bax (sc-7480), Bcl-2 (sc-7382), rodopsine RET-P1 (sc-57433) (Santa Cruz Biotechnology, Inc.—USA), PhA, Docosahexaenoic acid, Paraquat Dichloride, (Sigma-Alldrich). Solvents and reactors had HPLC and analytic grade.
Purified cultures of neurons from Wistar albino rats were prepared according to Politi et al., (1966) and treated in a poli-ornithine medium as in Adler-R (1982). On the first day of culture, equal concentrations of DHA (9 mM) were added to neuron cultures, with 7 different concentrations of PhA ([…]), usually found in marine origin oils rich in DHA, and 2 controls without DHA, with or without Paraquat. On the third day of culture, Paraquat was added, incubating it for 24 h before fixing it for an hour with paraformaldehyde in a phosphate buffered saline (0.9% NaCl in 0.01 M NaH2PO4 [pH 7.4], following 15 minutes with Triton X-100 (0.1%). In the apoptosis, the expression of Bax and Bcl-2 was determined and quantified according to the method Rotstein-N P et al. (2003). For the cytochemical studies, 10 fields/samples were randomly quantified, where results represent the of 3 samples/plate mean for each concentration of DHA with PhA.

For data set [2] the following is noted: toxic at doses as low as; cited from earlier work.
The mark [3] stands for this setting: DHA oils <5 μg/g of PhA compared with larger concentrations.

`CC/C=C\C/C=C\C/C=C\C/C=C\C/C=C\C/C=C\CCC(=O)O` [DHA]: the “ratio Bcl-2/Bax” value with retinas from rats (20 μg/g of PhA versus rats fed with <5 μg/g) is “significantly lower”. In addition, the “neutralisation of the inhibitor effect of the apoptosis” value in the data set with retinas from rats (PhA up to 12500 μgPhA/g of oil) is “no neutralisation”. The “anti-apoptotic activity in photoreceptors” value in the data set on retinas from rats (diet with DHA at 15%, PhA between 0 and 20 μg/g, MNU 75 mg/kg i.p.) was “greater anti-apoptotic activity”. The “physiological activity as an inhibitor of apoptosis (FIG. 2)” value with retinas from rats (oral consumption of DHA <5 μg/g of PhA) is on record as “greater physiological activity”. Further, the “anti-apoptotic activity and markers Bax and Bcl-2 with regards to DHA without PhA added” value in the data set with retinas from rats (rats fed with DHA <5 μg/g) is given as “do not reveal alterations”. Further, in data set [1], the “inhibition of the synthesis of leukotrienes” value is on record as 76%, the “reduction of prostaglandin E2” value is on record as 40% and the “reduction of prostaglandin F2” value is reported as 81%. The “anti-apoptotic activity in photoreceptors” value in the data set on photoreceptors (DHA 9 mM with 0 and 4 μg/g of PhA, compared with ≧20 and ≧100 μg/g) is recorded as “notably higher”. Moreover, in the data set on photoreceptors (setting [3]), the “inhibitory activity of apoptosis (FIG. 1)” value was “greater inhibitory activity of apoptosis” and the “oxidative stress produced (FIG. 1)” value was “less”. In addition, in the data set on photoreceptors (DHA with ≧20 μg/g and ≧100 μg/g of PhA), the “anti-apoptotic activity in photoreceptors” value was “significantly reduced”. Moreover, the “activity to inhibit apoptosis of photoreceptors” value in the data set with photoreceptors (PhA concentration 2500 μg/g) is given as “neutralised”. Moreover, the apoptosis of photoreceptors result in the data set with photoreceptors (PhA concentrations higher than 2500 μg/g) was “apoptosis of photoreceptors is induced”. In addition, the “oxidative stress (Bcl-2/Bax index)” value with photoreceptors (PhA ≦20 μg/g compared with ≧100 μg/g) is recorded as “significantly less oxidative stress”.
As for `CC(C)CCCC(C)CCCC(C)CCCC(C)CC(=O)O` (stereo not shown) [PhA, phytanic acid], in data set [2], the toxic dose is listed as 0.1 μmol/mg fat.
